From PMC10989073, “Antineoplastic effect of compounds C14 and P8 on TNBC and radioresistant TNBC cells by stabilizing the K-Ras4B^G13D/PDE6δ complex” (Frontiers in Oncology, 2024)
Like-named read-outs stand apart in the source and are kept apart here.

Tests used:
MDA-MB-231 cells = experiment: XTT cell viability assay and IC50 determination; type: cell-based, human; conditions: for IC50: XTT, ± SD; for concentration from which a significant cytotoxic effect is seen: compared to vehicle (DMSO)
Method: In order to evaluate the effect of the C14 and P8 compounds over MCF-10A, MCF-7, MDA-MB-231, and […] cell lines, the IC50 of those molecules was determined. In brief, all the cell lines were seeded at a density of 15,000 cells per well in a 96-well microtiter plate (Corning) in a corresponding growth medium for 24 h. Then, cells were treated with increasing concentrations (from 0 to 200 μM) of the C14 and P8 compounds (Enamine, Kyiv, Ukraine). As a positive control, increased concentrations of cisplatin (from 0 to 200 µM) (Accord, Mexico City, Mexico) were employed. Due to that, dimethyl sulfoxide (DMSO) was used as a vehicle, and its increased concentrations were evaluated as the negative control. All the samples were maintained under growth conditions for 24 h and 48 h. At the end of each time, cell viability was determined using the XTT Cell Proliferation Kit II (Roche Applied Science, Mannheim, Germany) following the manufacturer’s protocol. The absorbance was measured in a spectrophotometer Synergy-HTX (BioTek) at a wavelength of 450–500 nm with a reference wavelength of 650 nm. Cell proliferation was expressed as a percentage of viability [(absorbance of treated cells/absorbance of untreated cells × 100)] ± SD.

[1] = tested on: MDA-MB-231RR xenograft tumors; experiment: Orthotopic breast carcinoma xenograft, tumor growth; type: in vivo, Nu/Nu nude mice; conditions: female Nu/Nu mice, i.p. daily for 15 days, 30 mg/kg (methods: P8 10 mg/kg)
Method: Female immune-deficient Nu/Nu nude mice at 6–8 weeks of age ([…], Mexico City, Mexico) were maintained in pathogen-free conditions with irradiated chow. The animals were subcutaneously injected in the left 4th mammary gland with 2 × 10^6 MDA-MB-231RR cells per tumor in 0.1 ml of sterile phosphate-buffered saline. When MDA-MB-231RR cells reached palpable tumors (≥100 mm^3), mice were divided randomly into four groups receiving vehicle (10% DMSO, 0.05% carboxy methyl cellulose, and 0.02% in PBS) (n = 5), C14 at 30 mg/kg (n = 5), P8 at 10 mg/kg (n = 5), or cisplatin at 6 mg/kg (n = 5) intraperitoneally injected daily for 15 days. Body weight and tumor volume were measured every third day. Tumor sizes were calculated using the formula [(length × width2)/2] in mm.

MCF-10A cells = experiment: Apoptosis/necrosis assay (Annexin V–propidium iodide, flow cytometry); type: cell-based, human
Method: Apoptosis and necrosis were determined using the Apoptosis/Necrosis Detection kit (Abcam, Cambridge, UK) according to the manufacturer’s instructions. In brief, approximately 500,000 cells were seeded in 6-well plates (Corning) for 24 h. […] Cells were harvested and collected by centrifugation. All the samples were analyzed in triplicate using flow cytometry equipment FACSCalibur instrument (BD Biosciences, San Jose, CA, USA) at […] and 575-nm emission. Data analysis was performed using the FlowJo software (Tree Star Inc., Ashland, OR, USA). All experiments were performed in triplicate.

[2] = tested on: AKT and ERK phosphorylation in MDA-MB-231RR cells; experiment: Western blotting of pAKT and pERK; type: cell-based, human; conditions: IC50-48 for 3 h, EGF 100 ng/ml 10 min, densitometry
Method: (§1) To determine the effect of the C14 and P8 compounds over the protein effectors of K-Ras4B, AKT, and ERK, immunoblotting assays were conducted with specific antibodies. In brief, MCF-10A, MDA-MB-231, and MDA-MB-231RR cells were plated in 100-mm culture dishes until 80% of confluents. Cell adhesion was allowed for 24 h. […] After pre-treatment, cells were stimulated with 100 ng/ml EGF for 10 minutes to promote AKT and ERK activation. Later, the whole-cell extracts were obtained by the lysis of the cells (Cytoskeleton) in the presence of proteases and phosphatase inhibitors. Subsequently, the protein extracts were incubated at 4°C for 40 minutes to be clarified by centrifugation for 10 minutes at 14,000 rpm, at 4°C. The protein concentration of each extract was determined by using the Precision Red Advanced Protein Assay Reagent (Cytoskeleton) Then, approximately 25 μg of protein extract was electrophoresed in 10% sodium dodecyl sulfate–polyacrylamide gel electrophoresis (SDS-PAGE) and transferred to polyvinylidene fluoride (PVDF) membranes (Millipore, Billerica, MA, USA). Blots were probed using the following primary antibodies: Total ERK (Cell Signaling, Danvers, MA, USA), pERK (Cell Signaling), Total AKT (Cell Signaling), pAKT (Cell Signaling), GSK3β (Cell Signaling), and cyclin D1 (Abcam) at a 1:1,000 dilution. As a control, an anti-GAPDH antibody (GeneTex, Irvine, CA, USA) was employed at a 1:100,000 dilution and γ-Tubulin (Invitrogen) 1:5,000. Densitometric analysis of blots was performed using the software ImageJ version 1.45 (National Institutes of Health, Bethesda, […], USA).

[3] = tested on: AKT and ERK phosphorylation in MDA-MB-231 cells; experiment: Western blotting of pAKT and pERK; type: cell-based, human; conditions: MDA-MB-231, IC50-48 for 3 h, EGF 100 ng/ml 10 min, densitometry
Method: as §1

[4] = tested on: AKT and ERK phosphorylation in MCF-10A cells; experiment: Western blotting of pAKT and pERK; type: cell-based, human; conditions: IC50-48 for 3 h, EGF 100 ng/ml 10 min, densitometry
Method: as §1

[5] = tested on: cyclin D1 and GSK3β in MCF-10A cells; experiment: Western blotting of cyclin D1 and GSK3β; type: cell-based, human; conditions: 3 h, densitometry; for reduction in cyclin D1 protein: C14 and P8 at IC50-24 (Figure 7 legend); for reduction in GSK3β: IC50-24 (Figure 7 legend)
Method: as §1

Compound	IC50 (MDA-MB-231 cells; MDA-MB-231, 24 h, read-out: IC50-24) [µM]	IC50 (MDA-MB-231 cells; MDA-MB-231, 48 h, read-out: IC50-48) [µM]	concentration from which a significant cytotoxic effect is seen (MDA-MB-231 cells; MDA-MB-231, 48 h) [µM]	reduction in tumor size [1] [%]	viability (MCF-10A cells; 24 h at IC50-24, flow cytometry) [%]	reduction in pAKT [2] [%]	reduction in pERK [2]	reduction in pAKT [3]	reduction in pERK [3]	reduction in pAKT [4] [%]	reduction in pERK [4] [%]	reduction in cyclin D1 protein [5] [%]	reduction in GSK3β [5] [%]	IC50 (MDA-MB-231 cells; Homo sapiens, MDA-MB-231, 24 h, read-out: IC50-24) [µM]	IC50 (MDA-MB-231 cells; Homo sapiens, MDA-MB-231, 48 h, read-out: IC50-48) [µM]	apoptosis cells (MCF-10A cells; 24 h, cisplatin 100 µM, doxorubicin 0.5 µM)
CN(CC(=O)NC1CCOc2ccccc21)Cc1cccc(Cl)c1 (centres unmarked) [C14, 2-[(3-chlorophenyl)-methyl-methyl-amino]-N-croman-4-yl-acetamide]	91.1 ± 3.9	60 ± 6.6	≥ 10	40.0	91.1	> 70	approximately 30%	up to 60%	up to 70%	25	40	40	10	–	–	–
O=C(CN1CCN(c2cccc(Cl)c2)CC1)N[C@@H]1CCOc2ccccc21 [P8, 2-[4-(3-chlorophenyl)piperazin-1-yl]-N-[(4R)-chroman-4-yl]acetamide]	–	–	≥ 10	41.6	–	> 70	35%	up to 70%	up to 70%	25	40	40	40	140 ± 33.5	63.2 ± 10.6	–
N.N.[Cl][Pt][Cl] [Cisplatin, cisplatin, reference compound]	–	–	–	–	–	–	–	–	–	–	–	–	–	–	–	over 70%
